# What was measured:
# [1] = target: T1, cloned human δ opioid receptor (Homo sapiens, UniProt P41143); assay: [3H]diprenorphine receptor binding, δ opioid receptor; conditions: [3H]diprenorphine displacement; read-out: affinity (expressed as Ki value) to the δ opioid receptor
# T1 construct: expressed in transfected cells
# Description: (§1) Ki values were obtained by Cheng-Prusoff corrections of IC50 values.
# (§2) After dilution in buffer A and homogenization as before, membrane proteins (10-80 μg) in 250 μL were added to mixtures containing test compound and [^3H]diprenorphine (0.5 to 1.0 nM, 40,000 to 50,000 dpm) in 250 μL of buffer A in 96-well deep-well polystyrene titer plates (Beckman). After incubation at room temperature for one hour, the samples were filtered through GF/B filters that had been presoaked in a solution of 0.5% (w/v) polyethylenimine and 0.1% (w/v) bovine serum albumin in water. The filters were rinsed 4 times with 1 mL of cold 50 mM Tris HCl, pH 7.8 and radioactivity remaining on the filters determined by scintillation spectroscopy. Nonspecific binding was determined by the minimum values of the titration curves and was confirmed by separate assay wells containing 10 μM naloxone.
# (§3) To determine the equilibrium dissociation constant for the inhibitors (Ki), radioligand bound (cpm) in the presence of various concentrations of test compounds was measured. The concentration to give half-maximal inhibition (EC50) of radioligand binding was determined from a best nonlinear regression fit to the following equation,
# (§4) The nonlinear regression fit was performed using the program Prism® (GraphPad Software, San Diego, Calif.). The Ki values were then determined from the EC50 values by the following equation, […]
# [2] = target: T2, cloned human κ opioid receptor (Homo sapiens, UniProt P41145); assay: [3H]diprenorphine receptor binding, κ opioid receptor; conditions: [3H]diprenorphine displacement; read-out: affinity (expressed as Ki value) to the κ opioid receptor
# T2 construct: expressed in transfected cells
# Description: as §1, §2, §3, §4
# T1 sequence (P41143 whole entry): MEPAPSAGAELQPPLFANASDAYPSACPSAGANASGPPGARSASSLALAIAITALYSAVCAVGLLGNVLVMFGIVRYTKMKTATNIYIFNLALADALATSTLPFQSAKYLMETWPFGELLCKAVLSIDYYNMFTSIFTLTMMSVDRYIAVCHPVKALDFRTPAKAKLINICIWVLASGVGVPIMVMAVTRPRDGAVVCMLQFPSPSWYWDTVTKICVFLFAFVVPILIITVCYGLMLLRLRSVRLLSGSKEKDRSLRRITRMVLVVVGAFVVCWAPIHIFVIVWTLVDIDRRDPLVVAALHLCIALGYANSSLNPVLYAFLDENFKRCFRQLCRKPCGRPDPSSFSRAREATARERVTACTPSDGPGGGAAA
# T2 sequence (P41145 whole entry): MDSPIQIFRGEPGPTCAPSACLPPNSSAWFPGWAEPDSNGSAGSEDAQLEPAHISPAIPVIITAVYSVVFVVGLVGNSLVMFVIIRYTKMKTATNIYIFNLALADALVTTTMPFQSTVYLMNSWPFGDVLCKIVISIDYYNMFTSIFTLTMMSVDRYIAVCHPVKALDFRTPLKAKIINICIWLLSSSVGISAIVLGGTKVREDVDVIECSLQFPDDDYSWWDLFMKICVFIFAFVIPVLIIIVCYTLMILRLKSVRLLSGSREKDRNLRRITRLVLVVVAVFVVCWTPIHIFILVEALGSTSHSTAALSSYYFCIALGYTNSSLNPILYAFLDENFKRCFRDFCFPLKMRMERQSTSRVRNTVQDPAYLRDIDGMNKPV
smiles,measurement,setting,value
"C[C@H]1CN(C[C@H](Cc2ccccc2)C(=O)N[C@@H](CCCN)C(=O)O)CC[C@@]1(C)c1cccc(O)c1 [Example 28, 5-Amino-2(S)-{2(S)-benzyl-3-[4(R)-(3-hydroxy-phenyl)-3(R),4-dimethyl-piperidin-1-yl]-propionylamino}-pentanoic acid]",Ki,[1],510 nM
same,Ki,[2],200 nM
